Values quoted from earlier work in patent publication US20120259154A1, “In Vivo Immunomagnetic Hyperthermia Platform for Any Cell or Virus Having a Target Surface Receptor” (IVDiagnostics, Inc., priority 2011, published 2012).

Settings: following intravenous administration

folate-FITC
t1/2 (clearance from the blood): 3.5 min
